In patent US11815509B2, “Cell line and uses thereof” (priority 2017, dated 2023):

How the values were obtained:
MUTZ-3 cells = settings: 24 h stimulation, compared between the two chemicals, FIG. 6
SenzaCell cells = settings: 24 h stimulation, compared between the two chemicals, FIG. 6

C=CC(=O)OCCO [2-hydroxyethylacrylate]
SVM prediction value (prediction pattern) (MUTZ-3 cells): higher prediction value than DNCB
SVM prediction value (prediction pattern) (SenzaCell cells): higher prediction value than DNCB
